Measured values taken from US9273101B2, “Functionalized biomaterials for tissue regeneration” (Nanomed3D S.R.L., priority 2011, dated 2016).
“Also recorded” adds a separate entry of the source.

Assays:
[1] = Rheology of SAPeptide solutions and self-assembled scaffolds; format: physicochemical; conditions: 1% w/v, 2% w/v and 3% w/v
Protocol: Rheological properties of the self-assembling peptides of the invention were determined using a controlled stress TA Instruments AR-2000ex rheometer (TA Instruments). A cone-and-plate geometry (acrylic cone diameter, 20 mm; angle, 1°; truncation gap 34 μm) was used. Preliminary strain sweeps were performed for each sample to define the linear viscoelastic region, thus ensuring that moduli were independent of strain. Time sweeps, after addition of PBS (1×) were recorded at 25 C (angular frequency ω=1 Hz) and continued till G′ plateaued. Frequency sweeps, both for peptide water solutions and for self-assembled scaffolds, were performed at 25 C with the instrument in oscillatory mode at controlled strain of 1%. Final strain sweeps was performed at 1 Hz oscillatory frequency and at 25 C: onset point of failure was calculated by linear interpolation and subsequent determination of the intersection of the G′ modes within the linear region and at material failure respectively.

[2] = tested on: murine NSCs; experiment: Immunofluorescence of differentiated NSC progeny on SAP scaffolds, murine; format: cell-based
Protocol: (§1) In vitro tests were performed as previously described (8), in order to assess whether the biomaterials (assembled hydrogels) obtained with the SAPs of the present invention influenced NSCs adhesion, survival and/or differentiation. SAPeptides (30 μl for each well at a concentration of 10 mg/ml) were assembled into 96 multiwells two hours before cell. Cells (at a concentration of 2×10^4 cells/cm^2) were seeded on the top-surface of each assembled scaffold. Initially, cells were cultured with basal medium supplemented with βFGF (10 ng/ml), added to […]. At 3 days in vitro (DIV), βFGF medium was replaced with Leukemia Inhibitory Factor (LIF, Chemicon) (20 ng/ml) and Brain Derived Neurotrophic Factor (BDNF, Peprotech) (20 ng/ml). Fresh medium was added every three days. For both viability and differentiation assays positive and negative controls consisted of Cultrex-BME® substrate (R&D systems) (1:100 dilution in basal medium) and untreated bottom well surfaces respectively. Cell viability was quantified via CellTiter 96® Aqueous Proliferation Assay (Promega) at 7 DIV as recommended in the Promega protocol. After calibrating the linear response between the cell number and absorbance values, proliferated cell populations were quantified (n=5) by using a Vmax microplate reader (Molecular Devices) at 490 nm wavelength. Values, reported as means±standard error of the mean, were blanked to their respective controls consisting of same substrates and cell culture media without cells.
(§2) Immunofluorescence tests were performed for assaying the phenotypes of the differentiated human and murine NSC progenies. In the case of KLP and Ac-KLP just murine NSC have been used. Ac-KLP and KLP scaffolds were prepared at different concentrations in order to display three different stiffness values (viz. 100, 500 and 1000 Pa). This was done to assess the influence of scaffold concentration (and consequently its stiffness) over NSC differentiation. All the other peptides were tested at 1% v/w concentration instead. The following antibodies were used: rabbit polyclonal against GFAP (1:500, DakoCytomation) for astrocytes, mouse monoclonal against βIII-Tubulin (1:500, Covance) for neurons, mouse monoclonal against GalC (1:200, Chemicon) and O4 (1:200, Chemicon) for oligodendrocyes. Secondary Abs were Goat anti Mouse Alexa 488 (1:1000, Molecular Probes), Goat anti Mouse Cy3 (1:1000, Jackson Immunoresearch), Goat anti Rabbit Cy3 (1:1000, Jackson Immunoresearch). Cell nuclei were counterstained with DAPI (Molecular Probes). Quantitative analyses were performed by counting 100-300 cells for each of 9 randomly chosen fields over a total of 3 independent experiments. Phase contrast and fluorescence images of the adhering cells were acquired via Zeiss microscopes Axioplan 2 and ApoTome System at one week after seeding.

[3] = tested on: murine NSCs; experiment: Imaging and cell proliferation assay (CellTiter 96 MTS) on assembled hydrogels, murine NSCs; format: cell-based; conditions: 7 DIV
Protocol: as §1

[4] = tested on: human NSCs; experiment: Imaging and cell proliferation assay (CellTiter 96 MTS) on assembled hydrogels, human NSCs; format: cell-based; conditions: 7 DIV
Protocol: as §1

[5] = tested on: human NSCs; experiment: Immunofluorescence of differentiated NSC progeny on SAP scaffolds, human; format: cell-based; conditions: 1% scaffold, compared to Cultrex positive control
Protocol: as §1
as §2, with “Cell nuclei were counterstained with DAPI (Molecular Probes).” left out

[6] = tested on: murine NSC; experiment: NSC differentiation on exposure to soluble heptapeptides (immunofluorescence); format: cell-based; conditions: 12 DIV, Cultrex and Laminin coated wells, peptide 0.1 mg/ml in media, vs untreated NSCs, p<0.05
Protocol: In vitro tests were performed as previously described (8), in order to assess whether the heptapeptides obtained of the present invention influence NSCs differentiation.
Murine cells (at a concentration of 2×10^4 cells/cm^2) were seeded in each well (96 multi-well plate) previously coated with Cultrex-BME® substrate (R&D systems) (1:100 dilution in basal medium, overnight incubation) or with Laminin (Roche) (1:5 dilution in PBS 1×, pH 7.4, overnight incubation).
Initially, cells were cultured with basal medium supplemented with βFGF (10 ng/ml), added to enhance neuronal progeny differentiation. At 3 days in vitro (DIV), βFGF medium was replaced with Leukemia Inhibitory Factor (LIF, Chemicon) (20 ng/ml) and Brain Derived Neurotrophic Factor (BDNF, Peprotech) (20 ng/ml). Fresh medium was added every three days. The chosen peptides were dissolved in all cell culture media (but not in the coatings) at a concentration of 0.1 mg/ml.
Immunofluorescence tests were performed for assaying the phenotypes of the differentiated murine NSC progenies. The following antibodies were used: rabbit polyclonal against GFAP (1:500, DakoCytomation) for astrocytes and mouse monoclonal against βIII-Tubulin (1:500, Covance) for neurons. Secondary Abs were Goat anti Mouse Alexa 488 (1:1000, Molecular Probes), Goat anti Mouse Cy3 (1:1000, Jackson Immunoresearch), Cell nuclei were counterstained with DAPI (Molecular Probes). Quantitative analyses were performed by counting 100-300 cells for each of 9 randomly chosen fields over a total of 3 independent experiments.
Values, reported as means±standard error of the mean (FIG. 1A).

[7] = 1% scaffold, compared to Cultrex positive control

Substance: Ac-KLPGWSGGGGLDLKLDLKLDLK-CONH2 (Ac-KLPGWSGGGGLDLKLDLKLDLK-NH2)
- G′ and G″ values at different concentrations [1]: increased with concentration increments
- differentiated neurons (βIIITubulin positive cells) in correspondence of stiffness reductions ([2]; scaffold stiffness 100, 500 and 1000 Pa): significant increments

Substance: NH2-FAQRVPPGGGLDLKLDLKLDLK-CONH2 (H-FAQRVPPGGGLDLKLDLKLDLK-NH2)
- cell morphology, adhesion and spreading on assembled hydrogels [3]: spread and branched cells
- cell viability / proliferated cell population (MTS) ([3]; scaffolds 10 mg/ml, vs control, P<0.005): significantly fostered cell viability; also recorded: cell population was bigger; also recorded: significantly favored
- cell morphology, adhesion and spreading on assembled hydrogels [4]: spread and branched cells
- cell viability / proliferated cell population (MTS) ([4]; scaffolds 10 mg/ml, vs control, P<0.03): significantly fostered cell viability; also recorded: cell population was bigger; also recorded: significantly favored
- number of neurons (βIII-Tubulin) obtained [2, 7]: significantly higher
- number of oligodendrocytes (GalC/O4) obtained [2, 7]: significantly higher
- number of neurons (βIII-Tubulin) obtained [5]: significantly higher
- number of oligodendrocytes (GalC/O4) obtained [5]: significantly higher

Substance: NH2-GETRAPL-CONH2 (H-GETRAPL-NH2) [#GET]
- percentage of differentiated neurons (Beta III Tubulin staining) [6]: significant increase

Substance: NH2-HAIYPRH-CONH2 (H-HAIYPRH-NH2) [#HAI]
- percentage of differentiated neurons (Beta III Tubulin staining) [6]: significant increase

Substance: NH2-KLPGWSG-CONH2 (H-KLPGWSG-NH2) [#KLP]
- percentage of differentiated neurons (Beta III Tubulin staining) [6]: significant increase; also recorded: Highest increase
